Assay results published in US7241797B2, “Method of increasing milk production” (University of Cincinnati, priority 2002, dated 2007).

Legend:
[1] = system: cultured mammospheres; experiment: Morphology and morphometry of cultured mammospheres treated with serotonergic agents; type: cell-based, mouse; settings: for Mammosphere morphology (qualitative): 1 μg·ml−1, replenished each day, 7-day incubation
Procedure: Qualitative comparison of typical mammospheres in cultures treated with (a) control; (b) 5-HT; (c) methysergide; (d) PCPA. Each of the agents was added to the medium at a concentration of 1 μg·ml^−1 and replenished each day during a 7-day incubation. (e) histogram depicting the median areas (in arbitrary units) of mammospheres sorted by size (n=350, 2 replicate experiments) of control- and methysergide-treated cultures.
In addition to the effects on gene expression shown above, perturbing 5-HT signaling caused morphological changes in mammosphere cultures. Under control conditions the mammospheres were comprised of a boundary layer surrounding an interior lumenal space (FIG. 5a). Qualitatively, mammospheres treated with different serotonergic agents had markedly different structures. […] Those treated with PCPA were very distinctive because the boundary layer was consistently thin, and, there was a very high contrast between the dark boundary and light central space.
We performed a morphometric comparison of control and methysergide-treated mammospheres employing a Macintosh computer using the public domain NIH Image program (developed at the U.S. National Institutes of Health and available on the Internet at http://rsb.info.nih.gov/nih-image/). Threshold was adjusted to automatically outline the mammospheres, and the organoids were sorted into a frequency distribution based on particle sizes. The median size of the methysergide-treated mammospheres was about 40% larger than the control mammospheres (p<0.01; Mann-Whitney U-test; FIG. 5e).
(§1) Primary mouse mammary epithelium was prepared from nulliparous mice by enzymatic digestion and differential trypsinization, modifying the method of Imagawa (Pedchenko, V. K. & Imagawa, W. T. Mammogenic hormones differentially modulate keratinocyte growth factor (KGF)-induced proliferation and KGF receptor expression in cultured mouse mammary gland epithelium. Endocrinology 139,2519-2526 (1998)). Enriched epithelial cells (2×10^5 cells per well) were plated in basement membrane (Matrigel, 0.5 ml/well, BD Biosciences) reconstituted in a 12-well plate so that they formed mammospheres. They were pre-incubated for seven days, and treated with ovine PRL (1 μg/ml) for 2 days. The cell culture experiments were replicated 2-3 times in all cases.

[2] = system: WAP gene expression in cultured mammospheres; experiment: Milk protein gene expression (RT-PCR) in mammosphere cultures treated with serotonergic agents; type: cell-based, mouse; settings: cells cultured in 1% fetal serum, WAP constitutively expressed at a low level
Procedure: Primary mouse mammary cultures were treated with PRL, methysergide (Methy.), or 5-HT as noted (+). RT-PCR products for various genes expressed in the mammary gland are shown by the labels at the left margin.
We tested whether 5-HT might have an autocrine/paracrine effect first by examining the expression of various genes in mammosphere cultures (FIG. 4), and then by morphometry (FIG. 5). Using a broad-spectrum 5-HT receptor antagonist methysergide, in combination with PRL, we observed that the expression levels of several mammary gland genes, including whey acidic protein (WAP), glycosylated cell adhesion molecule-1 (GlyCAM-1) and […]. The effects of both 5-HT and methysergide (agonist and antagonist) were tested using cells cultured in 1% fetal serum, wherein the WAP gene is constitutively expressed at a low level. Under these conditions 5-HT suppressed WAP, and methysergide induced WAP.
Primary mouse mammary epithelium was prepared from nulliparous mice by enzymatic digestion and differential trypsinization, modifying the method of Imagawa (Pedchenko, V. K. & Imagawa, W. T. Mammogenic hormones differentially modulate keratinocyte growth factor (KGF)-induced proliferation and KGF receptor expression in cultured mouse mammary gland epithelium. Endocrinology 139,2519-2526 (1998)). […]

[3] = system: lactating dams (mice); experiment: Milk yield of nursing dams given carbidopa injections (nursing-related weight loss as index of milk yield); type: in vivo
Procedure: Nursing dams were given 4 injections of carbidopa (1 mg/kg body weight) at 12 h intervals (or control vehicle). After the final injection the pups were removed from the dam for 4 h. At the end of 4 h the dams were weighed and reunited with the pups to nurse for 1 h. After the nursing interval the dams were again weighed and the nursing-related weight losses were analyzed as an index of milk yield (Table 1). The litters of lactating dams (mice) were adjusted to 8 pups on day 1 postpartum. Carbidopa (1 mg/kg in 45% hydroxypropyl-β-cyclodextrin) or control vehicle were injected at approximately 12 h intervals beginning in the evening of postpartum day 3. After 4 injections (morning of day 5) pups were separated from the dams for 4 h. At the end of separation interval, the dams were injected with oxytocin (0.2U) and both the dams and their litters and were weighed. The litters were reunited with the dams for a 1 h nursing interval. The weights of the dams were measured after nursing and the differences in the weights of the dams before and after nursing are reported as milk yield. The percent increases with carbidopa-treatment are shown for statistically significant variables. […] Numbers of animals in treatment groups are in parentheses.

[4] = system: TPH mRNA in primary mouse mammary epithelial organoids; experiment: TPH mRNA induction in primary cultures of mammary epithelial organoids; type: cell-based
Procedure: (b) TPH induction by milk stasis. Contralateral #3 glands were either open and suckled (+) or sealed with cyanoacrylate glue and unsuckled (−). RT-PCR was performed for TPH and glyceraldehyde-phosphate-dehydrogenase (GPDH), as shown.
(§2) Having established that mammary gland TPH expression was induced in vivo we studied TPH induction in primary cultures of mammary epithelial organoids. These organoids, sometimes referred to as “mammospheres,” secrete milk proteins, fluids and ions vectorially into a closed central lumen when cultured with lactogenic hormones. TPH increased slowly for at least 48 h following addition of PRL to the medium, and the optimum PRL dose was 1 μg/ml (approximately 20 nM) (FIG. 2a). […] First, the time course of TPH mRNA induction was much slower that other genes known to be directly regulated by PRL. Secondly, the in vitro induction was blocked by cycloheximide; and thirdly, the TPH promoter was not induced by PRL in reporter gene assays (unpublished results).
as §1

[5] = system: TPH promoter; experiment: TPH promoter reporter gene assays; type: cell-based; settings: unpublished results
Procedure: as §2

[6] = carbidopa 1 mg/kg, 4 injections

In the case of N[C@@H](Cc1ccc(Cl)cc1)C(=O)O (racemic) [PCPA, p-chloro-phenylalanine], the “Mammosphere morphology (qualitative)” value [1] is reported as “easily visible central lumena”.

With NCCc1c[nH]c2ccc(O)cc12 [5-HT, 5-hydroxytryptamine] the “Effect on WAP gene expression” value [2] was “suppressed”, the “Mammosphere size vs controls (qualitative)” value ([1]; 1 μg·ml−1, 7-day incubation, no quantitative morphometry) was “smaller than the controls” and the “Mammosphere morphology (qualitative)” value [1] was “either filled or collapsed, with no obvious lumen”.

In the case of C[C@@](Cc1ccc(O)c(O)c1)(NN)C(=O)O [Carbidopa, S-(−)-α-hydrazino-3,4-dihydroxy-2-methylbenzenepropanoic acid], the “Percent increase in litter weight relative to dam weight with carbidopa treatment vs vehicle control” value [3, 6] is reported as greater than 8.1%, the “Percent increase in milk yield with carbidopa treatment vs vehicle control” value [3, 6] is reported as greater than 16.7% and the “Milk Yield (difference in dam weight before and after 1 h nursing)” value ([3]; carbidopa 1 mg/kg, 4 injections at 12 h intervals, 4 h separation, 1 h nursing, mean ± s.e.m.) is reported as 2.1 ± 0.1 g. The “Percent increase in litter (pup) weight with carbidopa treatment vs vehicle control” value ([3]; carbidopa 1 mg/kg, 4 injections, absolute basis) was greater than 11.6%, the “Litter/Dam (litter weight relative to dam weight)” value ([3]; carbidopa 1 mg/kg, 4 injections, mean ± s.e.m.) was 0.93 ± 0.03 and the “Litter Weight” value ([3]; litters of 8 pups, carbidopa 1 mg/kg to dam, 4 injections, mean ± s.e.m.) was 36.5 ± 1.8 g.

C[C@@H]1C[C@@H]([C@H](O)CC2CC(=O)NC(=O)C2)C(=O)[C@@H](C)C1 [cycloheximide] was tested, and the “Effect on in vitro induction of TPH by PRL” value [4] was “blocked”.

With CC[C@@H](CO)NC(=O)[C@@H]1C=C2c3cccc4c3c(cn4C)C[C@H]2N(C)C1 [methysergide] the “Effect on WAP gene expression” value [2] was “induced”, the “Median size of mammospheres, increase vs control mammospheres” value ([1]; 1 μg·ml−1, 7-day incubation, p<0.01, Mann-Whitney U-test) was “about 40%” and the “Mammosphere morphology (qualitative)” value [1] was “easily visible central lumena”.

B1: PRL: prolactin, lactogenic hormone; ovine PRL added to the mammosphere cultures (protein, UniProt P01240 31-229, looked up)
Prolactin: TPVCPNGPGNCQVSLRDLFDRAVMVSHYIHNLSSEMFNEFDKRYAQGKGFITMALNSCHTSSLPTPEDKEQAQQTHHEVLMSLILGLLRSWNDPLYHLVTEVRGMKGVPDAILSRAIEIEEENKRLLEGMEMIFGQVIPGAKETEPYPVWSGLPSLQTKDEDARHSAFYNLLHCLRRDSSKIDTYLKLLNCRIIYNNNC
For B1, the “Induction of the TPH promoter” value [5] was “not induced”, the “Optimum dose for TPH mRNA induction” value [4] was 1 µg/mL and the “Optimum dose for TPH mRNA induction (molar)” value [4] was “approximately 20 nM”.
